# Laboratory results: patent publication US20100144626A1, “Treatment of Multi-Drug Resistant Bacterial Infections” (priority 2006, published 2010)
# “Also recorded” adds a separate entry of the source. Read-outs that look alike come from different tables or passages of the source.
# Key:
# Gram-negative organisms = test: Growth inhibition, summary of MIC testing; type: cell-based; settings: summary in words
# Procedure: (§1) In example experiments miconazole nitrate, was dissolved in methanol and econazole nitrate and clotrimazole were dissolved in DMSO and methanol respectively. Other solvents that may be used include caster oil, pyridine, DMSO and 0.9% saline. For IV administration agents may be solubilised in polyethoxylated caster oil, or cyclodextrins such as sulfobutylether7-βcyclodextrin or hydroxypropyl-β-cyclodextrin and lactic acid. Minimum inhibitory concentrations (MICs) of a range of clinical and control bacterial organisms were measured according to BSAC (British Society for Antimicrobial Chemotherapy) guidelines, described briefly as follows;
# (§2) Stock solutions were prepared at concentrations of 1000 mg/L and 100 mg/L. The appropriate amounts of each stock solution were added to separate Petri dishes give the following final concentrations (after the addition of 20 mL molten agar): 128, 64, 32, 16, 8, 4, 2, 1, 0.5, 0.25, 0.12, 0.06, 0.03, 0.015 mg/L.
# (§3) The test organisms were grown overnight in 5 mL IST broth. Using a dilution in 0.9% saline of 1:500 for Gram-negative organisms and 1:100 for Gram-positive organisms, the appropriate agar plates were inoculated using a multipoint inoculator.
# (§4) Plates were incubated at 37° C. in air for 18-20 hours.
# (§5) The MIC is the minimum amount of an antibiotic at which there is no visible growth of bacteria. Tiny single colonies or faint hazes were not counted as growth.
# [1] = test system: strains of Staphylococci and Enterococci with reduced susceptibility to vancomycin; test: Growth inhibition, summary of MIC testing; type: cell-based; settings: summary in words
# Procedure: as §1, §2, §3, §4, §5
# [2] = test system: Escherichia coli NCTC 10418; test: MIC, agar dilution (BSAC guidelines); type: cell-based
# Procedure: as §1
# (§6) Preparation of Agar Plates and Broths
# (§7) Stock solutions of each agent were prepared using the formula:
# (§8) Where P=μg of active compound per mg (μg/mg) • V=volume required (mL) • C=final concentration of solution (mg/L) • W=weight of agent (mg) to be dissolved in volume V (mL)
# as §2
# (§9) Volumes (20 mL) of cooled molten IST agar (oxoid) was added to each Petri dish and mixed by swirling.
# (§10) After drying, the plates were stored at 4° C. and protected from light. Plates were used on the day of preparation.
# as §3, §4, §5
# [3] = test system: VISA, strain USA/VISA 5827; test: MIC, agar dilution (BSAC guidelines); type: cell-based; settings: Staphylococcus aureus
# Procedure: as §1, §6, §7, §8, §2, §9, §10, §3, §4, §5
# [4] = test system: Enterococcus faecium (VRE) E19 UAA/522 VanB; test: MIC, agar dilution (BSAC guidelines); type: cell-based; settings: E. faecium (VRE) E19 UAA/522 VanB
# Procedure: as §1, §6, §7, §8, §2, §9, §10, §3, §4, §5
# [5] = test system: Enterococcus faecium (VRE) E15 VanA ATCC 4147; test: MIC, agar dilution (BSAC guidelines); type: cell-based
# Procedure: as §1, §6, §7, §8, §2, §9, §10, §3, §4, §5
# [6] = test system: Pseudomonas aeruginosa NCTC 10662; test: MIC, agar dilution (BSAC guidelines); type: cell-based
# Procedure: as §1, §6, §7, §8, §2, §9, §10, §3, §4, §5
# [7] = test system: Enterococcus faecium (VRE) NCTC 7171; test: MIC, agar dilution (BSAC guidelines); type: cell-based
# Procedure: as §1, §6, §7, §8, §2, §9, §10, §3, §4, §5
# [8] = test system: Enterococcus faecium (VRE) VanR B145344C LFE; test: MIC, agar dilution (BSAC guidelines); type: cell-based; settings: E. faecium (VRE) VanR B145344C LFE
# Procedure: as §1, §6, §7, §8, §2, §9, §10, §3, §4, §5
# [9] = test system: Acinetobacter Baumannii ATCC 19606; test: MIC, agar dilution (BSAC guidelines); type: cell-based
# Procedure: as §1, §6, §7, §8, §2, §9, §10, §3, §4, §5
# [10] = test system: VISA, strain VISA 3900 UK; test: MIC, agar dilution (BSAC guidelines); type: cell-based; settings: Staphylococcus aureus
# Procedure: as §1, §6, §7, §8, §2, §9, §10, §3, §4, §5
# [11] = test system: VISA, strain USA/VISA 5836; test: MIC, agar dilution (BSAC guidelines); type: cell-based; settings: Staphylococcus aureus
# Procedure: as §1, §6, §7, §8, §2, §9, §10, §3, §4, §5
# [12] = test system: Enterococcus gallinarum (VRE) E1 NCTC 12359 VanC1; test: MIC, agar dilution (BSAC guidelines); type: cell-based
# Procedure: as §1, §6, §7, §8, §2, §9, §10, §3, §4, §5
# [13] = test system: Staphylococcus epidermidis ATCC 1228; test: MIC, agar dilution (BSAC guidelines); type: cell-based
# Procedure: as §1, §6, §7, §8, §2, §9, §10, §3, §4, §5
# [14] = test system: Klebsiella pneumoniae ESBL 700603; test: MIC, agar dilution (BSAC guidelines); type: cell-based
# Procedure: as §1, §6, §7, §8, §2, §9, §10, §3, §4, §5
# [15] = test system: Enterococcus faecalis (VRE) E8 VanA; test: MIC, agar dilution (BSAC guidelines); type: cell-based; settings: E. faecalis (VRE) E8 VanA
# Procedure: as §1, §6, §7, §8, §2, §9, §10, §3, §4, §5
# [16] = in vivo, cited from earlier work
# [17] = replicate 1, read-out: Minimum inhibitory concentration (MIC)
# [18] = replicate 2, read-out: Minimum inhibitory concentration (MIC)
# [19] = replicate 3, read-out: Minimum inhibitory concentration (MIC)
smiles,measurement,setting,value
Clc1ccc(COC(Cn2ccnc2)c2ccc(Cl)cc2Cl)cc1 (stereo not shown) [Econazole],activity against Gram-negative organisms,Gram-negative organisms,no significant activity
same,activity against strains of Staphylococci and Enterococci with reduced susceptibility to vancomycin,[1],good activity; also recorded: capable of inhibiting the growth
same,MIC,"[2]; NCTC10418, E. coli NCTC 10418, replicate 1, read-out: Minimum inhibitory concentration (MIC)",> 10 µg/mL
same,MIC,"[2]; NCTC10418, E. coli NCTC 10418, replicate 2, read-out: Minimum inhibitory concentration (MIC)",> 6 µg/mL
same,MIC,"[2]; NCTC10418, E. coli NCTC 10418, replicate 3, read-out: Minimum inhibitory concentration (MIC)",> 6 µg/mL
same,MIC,[3]; [17],1.5 µg/mL
same,MIC,[3]; [18],2 µg/mL
same,MIC,[3]; [19],2.5 µg/mL
same,MIC,[4]; [17],2 µg/mL
same,MIC,[4]; [18],4.5 µg/mL
same,MIC,[4]; [19],2 µg/mL
same,MIC,"[5]; E. faecium (VRE) E15 VanA ATCC 4147, replicate 1, read-out: Minimum inhibitory concentration (MIC)",3 µg/mL
same,MIC,"[5]; E. faecium (VRE) E15 VanA ATCC 4147, replicate 2, read-out: Minimum inhibitory concentration (MIC)",4.5 µg/mL
same,MIC,"[5]; E. faecium (VRE) E15 VanA ATCC 4147, replicate 3, read-out: Minimum inhibitory concentration (MIC)",3 µg/mL
same,MIC,"[6]; NCTC10662, P. aeruginosa NCTC 10662, replicate 1, read-out: Minimum inhibitory concentration (MIC)",> 10 µg/mL
same,MIC,"[6]; NCTC10662, P. aeruginosa NCTC 10662, replicate 2, read-out: Minimum inhibitory concentration (MIC)",> 6 µg/mL
same,MIC,"[6]; NCTC10662, P. aeruginosa NCTC 10662, replicate 3, read-out: Minimum inhibitory concentration (MIC)",> 6 µg/mL
same,MIC,"[7]; E. faecium (VRE) NCTC 7171, replicate 1, read-out: Minimum inhibitory concentration (MIC)",4 µg/mL
same,MIC,"[7]; E. faecium (VRE) NCTC 7171, replicate 2, read-out: Minimum inhibitory concentration (MIC)",> 6 µg/mL
same,MIC,"[7]; E. faecium (VRE) NCTC 7171, replicate 3, read-out: Minimum inhibitory concentration (MIC)",> 6 µg/mL
same,MIC,[8]; [17],3.5 µg/mL
same,MIC,[8]; [18],5 µg/mL
same,MIC,[8]; [19],2.5 µg/mL
same,MIC,"[9]; ATCC19606, Acinetobacter Baumannii ATCC 19606, replicate 1, read-out: Minimum inhibitory concentration (MIC)",> 10 µg/mL
same,MIC,"[9]; ATCC19606, Acinetobacter Baumannii ATCC 19606, replicate 2, read-out: Minimum inhibitory concentration (MIC)",> 6 µg/mL
same,MIC,"[9]; ATCC19606, Acinetobacter Baumannii ATCC 19606, replicate 3, read-out: Minimum inhibitory concentration (MIC)",> 6 µg/mL
same,MIC,[10]; [17],1.5 µg/mL
same,MIC,[10]; [18],2 µg/mL
same,MIC,[10]; [19],2 µg/mL
same,MIC,[11]; [17],2 µg/mL
same,MIC,[11]; [18],4.5 µg/mL
same,MIC,[11]; [19],4 µg/mL
same,MIC,"[12]; E. gallinarum (VRE) E1 NCTC 12359 VanC1, replicate 1, read-out: Minimum inhibitory concentration (MIC)",3 µg/mL
same,MIC,"[12]; E. gallinarum (VRE) E1 NCTC 12359 VanC1, replicate 2, read-out: Minimum inhibitory concentration (MIC)",5.5 µg/mL
same,MIC,"[12]; E. gallinarum (VRE) E1 NCTC 12359 VanC1, replicate 3, read-out: Minimum inhibitory concentration (MIC)",3 µg/mL
same,MIC,"[13]; ATCC1228, S. epidermidis ATCC 1228, replicate 1, read-out: Minimum inhibitory concentration (MIC)",4 µg/mL
same,MIC,"[13]; ATCC1228, S. epidermidis ATCC 1228, replicate 2, read-out: Minimum inhibitory concentration (MIC)",2 µg/mL
same,MIC,"[13]; ATCC1228, S. epidermidis ATCC 1228, replicate 3, read-out: Minimum inhibitory concentration (MIC)",2.5 µg/mL
same,MIC,"[14]; ESBL700603, K. pneumoniae ESBL 700603, replicate 1, read-out: Minimum inhibitory concentration (MIC)",> 10 µg/mL
same,MIC,"[14]; ESBL700603, K. pneumoniae ESBL 700603, replicate 2, read-out: Minimum inhibitory concentration (MIC)",> 6 µg/mL
same,MIC,"[14]; ESBL700603, K. pneumoniae ESBL 700603, replicate 3, read-out: Minimum inhibitory concentration (MIC)",> 6 µg/mL
same,MIC,[15]; [17],7 µg/mL
same,MIC,[15]; [18],> 6 µg/mL
same,MIC,[15]; [19],> 6 µg/mL
same,tolerability of single oral dose,[16]; po,tolerated
same,number of metabolites,[16],more than 20
